Tested on: apyrase
Assay: Screen for apyrase inhibitors (Method 1, in vitro phosphate-release absorbance assay)
Type: biochemical
Details: inhibitor conc at 1 mM stock, 1 hr room temperature, absorbance 630 nm; rounded average of two assay results
Method in brief: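 Phosphate-release colorimetric assay (Windsor method) in 60 mM Hepes, 3 mM MgCl2, 3 mM CaCl2, 3 mM ATP, pH 6.5, with compound or DMSO control added. Released phosphate developed with ammonium molybdate and ascorbic acid/TCA, then stopped with citrate/acetic acid.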

% Inhibition of Apyrase	Structure (SMILES)
58%	COc1ccccc1N(C)S(=O)(=O)c1ccc(C(=O)N2CCSc3ccccc32)cc1 [I-867, 4-(3,4-dihydro-2H-benzo[b][1,4]thiazine-4-carbonyl)-N-(2-methoxyphenyl)-N-methylbenzenesulfonamide]
58%	COc1ccc2c(c1)CCCN2C(=O)c1ccc(S(=O)(=O)N2CCCc3ccccc32)cc1 [I-866, (4-((3,4-dihydroquinolin-1(2H)-yl)sulfonyl)phenyl)(6-methoxy-3,4-dihydroquinolin-1(2H)-yl)methanone]
58%	O=C(Nc1cccc(F)c1)c1cccc(S(=O)(=O)Nc2ccc3c(c2)OCO3)c1 [I-265, 3-(N-(benzo[d][1,3]dioxol-5-yl)sulfamoyl)-N-(3-fluorophenyl)benzamide]
73%	O=C(Nc1ccc(F)c([N+](=O)[O-])c1)c1ccc(S(=O)(=O)Nc2ccc(Cl)cc2)cc1 [I-4, 4-(N-(4-chlorophenyl)sulfamoyl)-N-(4-fluoro-3-nitrophenyl)benzamide]
47%	Cc1ccnn1-c1ccc(C(=O)Nc2ccc(NS(=O)(=O)c3ccc4c(c3)OCCO4)cc2)cc1 [I-1003, N-(4-((2,3-dihydrobenzo[b][1,4]dioxine)-6-sulfonamido)phenyl)-4-(5-methyl-1H-pyrazol-1-yl)benzamide]
4%	COc1ccc(NC(=O)c2cccc(S(=O)(=O)Nc3cccc(Cl)c3)c2)cn1 [I-612, 3-(N-(3-chlorophenyl)sulfamoyl)-N-(6-methoxypyridin-3-yl)benzamide]
58%	CN(c1ccccc1)S(=O)(=O)c1cccc(NC(=O)c2cncc(Br)c2)c1 [I-720, 5-bromo-N-(3-(N-methyl-N-phenylsulfamoyl)phenyl)nicotinamide]
56%	COc1ccc2c(c1)CCCN2C(=O)c1ccc(S(=O)(=O)Nc2ccccc2)cc1 [I-871, 4-(6-methoxy-1,2,3,4-tetrahydroquinoline-1-carbonyl)-N-phenylbenzenesulfonamide]
57%	Cc1ccc(NC(=O)c2cccc(S(=O)(=O)N3CCc4ccccc43)c2)cc1 [I-501, 3-(indolin-1-ylsulfonyl)-N-(p-tolyl)benzamide]
57%	COc1ccc(S(=O)(=O)N2CCc3ccccc32)cc1C(=O)Nc1ccc(C(F)(F)F)cc1 [I-505, 5-(indolin-1-ylsulfonyl)-2-methoxy-N-(4-(trifluoromethyl)phenyl)benzamide]
24%	COc1ccc(NS(=O)(=O)c2cccc(NC(=O)c3cccc(-n4cccc4)c3)c2)cc1 [I-27, N-(3-(N-(4-methoxyphenyl)sulfamoyl)phenyl)-3-(1H-pyrrol-1-yl)benzamide]
44%	COc1ccc(NC(=O)c2cccc(S(=O)(=O)Nc3ccc4c(c3)OCO4)c2)cc1 [I-276, 3-(N-(benzo[d][1,3]dioxol-5-yl)sulfamoyl)-N-(4-methoxyphenyl)benzamide]
10%	O=C(Nc1cccc([N+](=O)[O-])c1)c1cc(S(=O)(=O)Nc2ccc(F)cc2)ccc1Cl [I-52, 2-chloro-5-(N-(4-fluorophenyl)sulfamoyl)-N-(3-nitrophenyl)benzamide]
56%	Cc1ccc(S(=O)(=O)Nc2ccc(C(=O)Nc3ccc(F)cc3)cc2)cc1C [I-927, 4-((3,4-dimethylphenyl)sulfonamido)-N-(4-fluorophenyl)benzamide]
73%	N#Cc1cc(C(=O)Nc2cccc(NS(=O)(=O)c3ccccc3)c2)ccc1Cl [I-210, 4-chloro-3-cyano-N-(3-(phenylsulfonamido)phenyl)benzamide]
52%	CC(C)n1ncc2cc(NC(=O)c3cccc(S(=O)(=O)Nc4ccc5c(c4)OCO5)c3)cnc21 [I-553, 3-(N-(benzo[d][1,3]dioxol-5-yl)sulfamoyl)-N-(1-isopropyl-1H-pyrazolo[3,4-b]pyridin-5-yl)benzamide]
61%	O=C(Nc1ccc2c(c1)OC1(CCCC1)O2)c1ccc(NS(=O)(=O)c2ccccc2)cc1 [I-908, 4-(phenylsulfonamido)-N-(spiro[benzo[d][1,3]dioxole-2,1′-cyclopentan]-5-yl)benzamide]
51%	COc1cc(OC)c(NS(=O)(=O)c2ccc(C)c(C(=O)N3CCc4ccccc43)c2)cc1Cl [I-570, N-(5-chloro-2,4-dimethoxyphenyl)-3-(indoline-1-carbonyl)-4-methylbenzenesulfonamide]
10%	O=C(Nc1cnccc1O)c1cccc(NS(=O)(=O)c2ccc(Cl)c(Cl)c2)c1 [I-668, 3-((3,4-dichlorophenyl)sulfonamido)-N-(4-hydroxypyridin-3-yl)benzamide]
16%	COc1ccc(NS(=O)(=O)c2cccc(C(=O)Nc3cnc4[nH]nc(C)c4c3)c2)cc1 [I-606, 3-(N-(4-methoxyphenyl)sulfamoyl)-N-(3-methyl-1H-pyrazolo[3,4-b]pyridin-5-yl)benzamide]
60%	COc1ccc(NS(=O)(=O)c2cccc(C(=O)Nc3ccc(OC(F)F)cc3)c2)cc1 [I-460, N-(4-(difluoromethoxy)phenyl)-3-(N-(4-methoxyphenyl)sulfamoyl)benzamide]

% Inhibition of Apyrase	Structure (SMILES)
43%	O=C(Nc1ccc(OC(F)F)c(Cl)c1)c1ccccc1S(=O)(=O)N1CCCCC1 [I-354, N-(3-chloro-4-(difluoromethoxy)phenyl)-2-(piperidin-1-ylsulfonyl)benzamide]
36%	CN(c1ccccc1)S(=O)(=O)c1cccc(NC(=O)c2ccc3ccccc3n2)c1 [I-754, N-(3-(N-methyl-N-phenylsulfamoyl)phenyl)quinoline-2-carboxamide]
62%	Cc1ccc(NS(=O)(=O)c2ccc(C(=O)N3c4ccccc4CC3C)cc2)cc1 (stereo not drawn) [I-391, 4-(2-methylindoline-1-carbonyl)-N-(p-tolyl)benzenesulfonamide]
61%	O=C(Nc1ccc(F)c(Cl)c1)c1cccc(S(=O)(=O)Nc2ccc(F)cc2)c1 [I-450, N-(3-chloro-4-fluorophenyl)-3-(N-(4-fluorophenyl)sulfamoyl)benzamide]
50%	Cc1ccc(S(=O)(=O)Nc2cccc(C(=O)Nc3nc4ccccc4[nH]3)c2)cc1F [I-649, N-(1H-benzo[d]imidazol-2-yl)-3-((3-fluoro-4-methylphenyl)sulfonamido)benzamide]
66%	O=C(c1ccc(S(=O)(=O)Nc2ccc(Cl)cc2)cc1)N1CCc2ccccc21 [I-208, N-(4-chlorophenyl)-4-(indoline-1-carbonyl)benzenesulfonamide]
53%	COc1ccc(NC(=O)c2cccc(S(=O)(=O)Nc3ccc4c(c3)OCO4)c2)cc1Cl [I-882, 3-(N-(benzo[d][1,3]dioxol-5-yl)sulfamoyl)-N-(3-chloro-4-methoxyphenyl)benzamide]
54%	O=C(c1cccc(S(=O)(=O)Nc2cccc(Cl)c2)c1)N1CCc2ccccc21 [I-542, N-(3-chlorophenyl)-3-(indoline-1-carbonyl)benzenesulfonamide]
52%	Cc1ccc(C(=O)Nc2cccc(NS(=O)(=O)c3ccccc3)c2)cc1[N+](=O)[O-] [I-347, 4-methyl-3-nitro-N-(3-(phenylsulfonamido)phenyl)benzamide]
15%	CCOc1ccc(NS(=O)(=O)c2cccc(NC(=O)c3ccncc3)c2)cc1Br [I-765, N-(3-(N-(3-bromo-4-ethoxyphenyl)sulfamoyl)phenyl) isonicotinamide]
38%	COc1ccc(NC(=O)c2ccc(S(=O)(=O)Nc3cccc(C(F)(F)F)c3)cc2)cc1OC [I-403, N-(3,4-dimethoxyphenyl)-4-(N-(3-(trifluoromethyl)phenyl)sulfamoyl)benzamide]
60%	Cc1ccc(NC(=O)c2cccc(S(=O)(=O)N3CCc4ccccc43)c2)cc1C [I-452, N-(3,4-dimethylphenyl)-3-(indolin-1-ylsulfonyl)benzamide]
78%	N#Cc1cccc(NC(=O)c2ccc(S(=O)(=O)Nc3ccccc3Cl)cc2)c1 [I-202, 4-(N-(2-chlorophenyl)sulfamoyl)-N-(3-cyanophenyl)benzamide]
42%	COc1ccc(NC(=O)c2cccc(S(=O)(=O)Nc3ccc4c(c3)OCO4)c2)c(OC)c1 [I-590, 3-(N-(benzo[d][1,3]dioxol-5-yl)sulfamoyl)-N-(2,4-dimethoxyphenyl)benzamide]
44%	Cc1ccc(NC(=O)c2ccc(NS(=O)(=O)c3ccc(Br)cc3)cc2)cc1S(=O)(=O)N(C)C [I-945, 4-((4-bromophenyl)sulfonamido)-N-(3-(N,N-dimethylsulfamoyl)-4-methylphenyl)benzamide]
13%	O=C(Nc1ccccc1)c1ccc(Cl)c(S(=O)(=O)Nc2ccc(Br)cc2)c1 [I-43, 3-(N-(4-bromophenyl)sulfamoyl)-4-chloro-N-phenylbenzamide]
56%	N#Cc1cccc(NC(=O)c2ccc(NS(=O)(=O)c3ccc(Br)cc3)cc2)c1 [I-928, 4-((4-bromophenyl)sulfonamido)-N-(3-cyanophenyl)benzamide]
56%	COc1ccc(NS(=O)(=O)c2cccc(NC(=O)c3[nH]c(C)c(C(C)=O)c3C)c2)cc1 [I-727, 4-acetyl-N-(3-(N-(4-methoxyphenyl)sulfamoyl)phenyl)-3,5-dimethyl-1H-pyrrole-2-carboxamide]
58%	Cc1ccc(NC(=O)c2cccc(NS(=O)(=O)c3cccs3)c2)cc1C [I-636, N-(3,4-dimethylphenyl)-3-(thiophene-2-sulfonamido)benzamide]
59%	O=C(c1ccc(NS(=O)(=O)c2ccc3c(c2)OCCO3)cc1)N1CCCc2ccccc21 [I-912, N-(4-(1,2,3,4-tetrahydroquinoline-1-carbonyl)phenyl)-2,3-dihydrobenzo[b][1,4]dioxine-6-sulfonamide]

Structure (SMILES)	% Inhibition of Apyrase
O=C(Nc1ccc(S(=O)(=O)Nc2cccc(C(F)(F)F)c2)cc1)c1cc([N+](=O)[O-])cc([N+](=O)[O-])c1 [I-975, 3,5-dinitro-N-(4-(N-(3-(trifluoromethyl)phenyl)sulfamoyl)phenyl) benzamide]	62%

From patent US12685312B2, “Sulfonamide apyrase inhibitors” (Texas Crop Science, Inc., priority 2022, dated 2026)
